The numbers were not newly measured in patent US11426447B2, “Neuregulin for the treatment of tumors of the nervous system” (LEIBNIZ-INSTITUT FUR …, priority 2016, dated 2022), which cites them from elsewhere.

This series concerns schwannoma. The following applies: cited from earlier work.

On to bevacizumab, for which, for the setting “NF2 patients (Plotkin et al., 2009)”, the “efficacy for schwannoma growth control and hearing improvement” value is on record as “limited efficacy”. The side effects result (human, in vivo) is on record as “severe side effects”.
